In patent publication US20140235856A1, “FIBROBLASTS CELLULAR MODEL FOR ASSESSING EFFICACY OF CANCER TREATMENTS BY SHH/PTCH PATHWAY ANTAGONISTS” (CNRS, priority 2011, published 2014):

System: SHH/PTCH pathway (GLI1 mRNA) in NBCCS 6 E6/E7 fibroblasts
Assay: Comparative Q-PCR analysis of GLI1 mRNA accumulation after treatment of fibroblast cell lines with purmorphamine
Type: cell-based, human
Details: NBCCS 6 E6/E7 fibroblasts compared with CTRL E6/E7 fibroblasts, same experimental conditions; 0.1% DMSO; Q-PCR (FIG. 4)
Protocol: Human primary fibroblasts (named CTRL or NBCCS) were isolated from a healthy non photo-exposed skin biopsy of either a control patient or a patient with caracteristic NBCCS after informed consent (Otto et al., 1999; Valin et al., 2009)
The CTRL and NBCCS6 cell lines were then immortalized by retroviral transduction with pLE6/E7SN resulting in CTRL and NBCCS-E6-E7 (FIG. 1) (Halbert et al., 1991, 1992). Cells were grown at 37° C. in a humified atmosphere containing 5% CO2, DMEM medium, 50 U/ml penicillin, 50 μg/ml streptomycin, 0.125 μg/ml amphotericin B, 2 mM L-Glutamine, 1 mM Sodium pyruvate, 1× non essential amino acids.
Total RNA was extracted with RNeasy® Mini kit according to manufacturer's instructions (Qiagen, Hilden, Germany). Reverse transcription was performed on 1 μg total RNA with Superscript II Reverse Transcriptase (Roche Applied Science, Basel, Switzerland) by using random primers. Q-PCR was carried out using the 7900 HT Fast Real-Time PCR System (Applied Biosystems, Foster City, Calif., USA).
To evaluate small Molecules Modulators of the SHH/PTCH pathway, the Purmorphamine (SMO agonist) was used. Purmorphamine (SMO agonist) was diluted in DMSO at stock concentrations of 50 mM and 10 mM, respectively. To avoid side effects and toxicity, the final concentration of DMSO was fixed to 0.1% DMSO.

Q: With `c1ccc2c(Oc3nc(Nc4ccc(N5CCOCC5)cc4)c4ncn(C5CCCCC5)c4n3)cccc2c1` [Purmorphamine] as the compound, how does the “GLI1 mRNA accumulation response, NBCCS 6 E6/E7 versus CTRL cells” value read?
A: 7 × times
